Experimental findings from patent publication US20200290034A1, “COMPOSITION AND METHOD FOR REGENERATING CATION EXCHANGE RESINS” (Tygrus, LLC, priority 2019, published 2020) are described below.

Series [1] can be described thus: Excess hydrogen ion concentration and pH after admixing with water. Particulars: 5 ml material admixed in 5 ml deionized and distilled water, standard temperature and pressure.
Series [2] is described as follows: Shelf-stability of stored samples. The class given is physicochemical. Particulars: closed containers at standard temperature and 50% relative humidity. From the text:
The material produced in Example I is separated into individual samples. Some are stored in closed containers at standard temperature and 50% relative humidity to determine shelf-stability. Other samples are subjected to analytical procedures to determine composition. The test samples are subjected to FFTIR spectra analysis and titrated with hydrogen coulometry. The sample material has a molarity ranging from […] strength. The material has a gravimetric range greater than 1.15; with ranges greater than 1.9 in certain instances. The composition is stable and has a 1.87 to 1.78 molar material that contains 8 to 9% of the total moles of acid protons that are not charged balanced.

Consider “hydrogen (1+), triaqua-μ3-oxotri sulfate (1:1) [Example I]”, for which, in series [1], the “excess hydrogen ion concentration” value was “greater than 15 % by volume” and the pH turned out to be 1. In series [2], the shelf-stability result was “stable”.
